Columns and labels:
[1] = test system: N-glycosylation of recombinant boIFN-τ in TN5 cells; test: SDS-PAGE and Western blot of recombinant boIFN-τ from TN5 cells cultured with tunicamycin; type: cell-based, insect (TN5 cells); conditions: 1 μg/ml tunicamycin, 3 days; only the 19.5 kD molecule observed
Description: The addition of a sugar chain to a recombinant protein, that is, N-glycosylation, was inhibited by culturing the TN5 cells infected with a recombinant baculovirus in a medium containing 1 μg/ml tunicamycin (manufactured by Sigma Chemical Co.) for 3 days.
Twenty μl of the culture supernatant of TN5 cells cultured for 3 days after infection with a recombinant baculovirus was subjected as a sample to Tricine SDS-PAGE performed under reducing conditions in accordance with a method described in Schagger, H. et al., Anal. Biochem. 166, 368-379 (1987). After electrophoresis, the separated protein was stained with Coomassie brilliant blue (CBB)G-250 or blotted on a polyvinylidene difluoride (PDFV) membrane (manufactured by Millipore Corporation). The protein-transferred membrane was blocked with PBS containing 5% skim milk at 4° C. overnight and allowed to react with a 0.2 μg/ml anti-boIFN-τ monoclonal antibody (manufactured by Katakura Industries) at room temperature for one hour, and further incubated with 2000-fold-diluted HPR-rabbit anti-mouse IgG at room temperature. The antibody bound to the protein was visualized by 3,3′-diaminobenzidine staining. The densities of bands obtained after the CBB staining and Western blotting were quantified by using a densitometer.

[2] = test system: N-acetylglucosaminidase (GlcNAcase) of TN5 cells; test: GlcNAcase inhibition assay of TN5 cells (p-nitrophenol release from p-nitrophenyl β-D-acetylglucosamide); type: biochemical, insect (TN5 cells)
Description: The GlcNAcase inhibition assay of TN5 cells was performed as follows.
TN5 cells (2.0×10^7 cells) were washed once with PBS and rinsed with 1 ml of PBS containing 1% Triton-X 100. After centrifugation at 1,000×g for 5 minutes, the supernatant was used as an enzyme source. Fifty μl of the supernatant was mixed with 50 μl of 2-ADN to make a final 2-ADN concentration of 0 to 5 mM. To the solution mixture, 200 μl of a substrate solution (1 mg/ml p-nitrophenyl β-D-acetylglucosamide in 0.2 M citrate/phosphate buffer) was added. The resultant solution was incubated at 37° C. for one hour. The reaction was quenched by adding 1 M Na2CO3, the absorption of released p-nitrophenol was measured at 420 nm. […] Lanes 1 to 6 in the figures show the results obtained at addition amounts of 2-ADN, 0, 0.05, 0.5, 1, 2 and 5 mM, respectively.

[3] = test system: TN5 cells; conditions: 2-ADN added in a concentration of 5 mM
Description: TN5 cells were cultured in EX-CELL401 medium (manufactured by JRH Bioscience) containing 0 to 5 mM of 2-acetamide-1,2-dideoxynojirimycin (2-ADN) (Tront Research Chemicals Inc.) at 28° C. for 3 days. Subsequently, TN5 (TN5B1-4) cells were infected with the recombinant baculovirus prepared as described above at an moi of 1.0 and subjected to a further culturing in EX-CELL401 medium (manufactured by JRH Bioscience) at 28° C. for 3 days. Thereafter, the supernatant containing recombinant boIFN-τ (rboIFN-τ) was recovered.

[4] = test system: α-2,6-linked sialylation of recombinant boIFN-τ in TN5 cells; test: Lectin blot analysis (HRP-SNA) of sialic acid in recombinant boIFN-τ expressed by TN5 cells; type: cell-based, insect (TN5 cells); conditions: 2-ADN 0, 0.05, 0.5, 1, 2 and 5 mM; total amount of protein of each lane the same
Description: After TN5 cells were infected with a recombinant baculovirus, they were cultured for 3 days. The supernatant was subjected to Tricine SDS-PAGE performed under reducing conditions (600 ng protein per lane). After the separated protein was transferred on a PVDF membrane, and blocked with PBS containing 1% BSA at 4° C. overnight, the protein was washed with 200 mM Tris-buffered saline (TBS) containing 0.05% Tween 20, and then reacted with 5 μg/ml Sambucus nigra agglutinin labeled with horseradish peroxidase (HRP-SNA, manufactured by EY laboratory) at room temperature for one hour. The carbohydrate reacted was visualized by a Renaissance Western Blot Chemiluminescence Kit (Manufactured by NEN).
To investigate whether or not a sialylated recombinant glycoprotein is produced in insect cells where the GlcNAcase activity is inhibited, the terminal structure of N-glycan of recombinant boIFN-τ was determined by a lectin blot analysis using SNA, which is a lectin capable of recognizing α-2,6-linked sialic acid.

Row | Compound | N-glycosylation of recombinant boIFN-τ [1] | GlcNAcase activity, dependence on concentration ([2]; 0 to 5 mM 2-ADN) | GlcNAcase activity inhibited ([2]; 5 mM 2-ADN, TN5 cell lysate supernatant, 37° C., one hour) | proliferation of cells [3] | SNA-reactive band intensity (sialic acid in recombinant boIFN-τ) [4]
1 | tunicamycin | blocked |  |  |  | 
2 | CC(=O)N[C@H]1CN[C@H](CO)[C@@H](O)[C@@H]1O [2-ADN, 2-acetoamide-1,2-dideoxynojirimycin] |  | inhibited by 2-ADN in a concentration-dependent manner | About 80% | not affected | increased by adding 2-ADN in a concentration dependent manner

Source: patent US20040203117A1, “Method of expressing genetically modified protein carrying sugar chain having sialic acid added thereto in insect cells” (priority 2001, published 2004)
